This passage reports IC50 results from US20070287738A1, “Substituted Cyanopyridines as protein kinase inhibitors” (priority 2006, published 2007).

T1 sequence (Q04759 362-706): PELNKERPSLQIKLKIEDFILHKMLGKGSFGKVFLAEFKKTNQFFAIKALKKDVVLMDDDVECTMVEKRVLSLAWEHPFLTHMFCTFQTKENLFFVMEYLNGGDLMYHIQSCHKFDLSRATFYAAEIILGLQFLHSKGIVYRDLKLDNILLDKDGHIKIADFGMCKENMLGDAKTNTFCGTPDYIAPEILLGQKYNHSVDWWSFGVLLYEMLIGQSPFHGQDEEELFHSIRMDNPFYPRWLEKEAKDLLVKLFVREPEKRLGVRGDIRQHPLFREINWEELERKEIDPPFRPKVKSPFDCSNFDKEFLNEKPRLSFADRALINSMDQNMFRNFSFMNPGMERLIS

The first experiment has as its target T1, purified recombinant active kinase domain of full length PKC theta (amino acids 362-706) (Homo sapiens, UniProt Q04759).
T1 construct: active kinase domain of full length PKC theta (amino acids 362-706)
Briefly: Radioactive kinase assay for inhibition of the active kinase domain (KD) of PKCθ. The experiment is classed as biochemical. Particulars: radioactive (ATP γ P33) assay, average value. On the procedure: A Radioactive Kinase Assay for Inhibition of the Active Kinase Domain (KD) of PKCθ
(§1) This assay is based on the phosphorylation of a biotinylated substrate by a kinase utilizing radiolabeled ATP (ATP γ P33). The substrate was a biotinylated peptide with a sequence of biotin-FARKGSLRQ-C(O)NH2. The enzyme was purified recombinant active kinase domain of full length PKC theta (amino acids 362-706). The assay buffer was composed of 100 mM Hepes, pH7.5, 2 mM MgCl2, 20 mM β-glycerophosphate and 0.008% TritonX 100. A reaction mixture of ATP, ATP γ P33 (PerkinElmer), DTT, and the enzyme was prepared in the assay buffer and added to a 96-well polypropylene plate. The compound (diluted in DMSO in a separate 96-well polypropylene plate) was added to the reaction mixture and incubated at room temperature. Following the incubation, the peptide substrate was added to the reaction mixture to initiate the enzymatic reaction. The reaction was terminated with the addition of a stop solution (100 mM EDTA, 0.2% TritonX100, and 20 mM NaHPO4) and transferred from the assay plate to a washed streptavidin-coated 96-well scintiplate (PerkinElmer). The scintiplate was incubated at room temperature, washed in PBS with 0.1% TritonX 100, and counted in the 1450 Microbeta Trilux (Wallac, Version 2.60). Counts were recorded for each well as corrected counts per minute (CCPM). The counts were considered corrected because they were adjusted according to a P33 normalization protocol, which corrects for efficiency and background differences between the instrument detectors (software version 4.40.01).
As a reminder, the IC50 is the concentration at which inhibition is half-maximal. In the case of `COc1ccc(Nc2c(C#N)cncc2-c2ccc(OC)c(OC)c2)cc1OC` [Compound 105, 5-(3,4-dimethoxyphenyl)-4-[(3,4-dimethoxyphenyl)amino]nicotinonitrile], the IC50 worked out at 10.6 µM.
On the same count and under the same terms, next, `COc1ccc(-c2cncc(C#N)c2Nc2ccc(Cl)cc2F)cc1OC` [Compound 106, 4-[(4-chloro-2-fluorophenyl)amino]-5-(3,4-dimethoxyphenyl)nicotinonitrile]: 0.84 µM; `COc1ccc(-c2cncc(C#N)c2Nc2ccc(F)c(Cl)c2)cc1OC` [Compound 107, 4-[(3-chloro-4-fluorophenyl)amino]-5-(3,4-dimethoxyphenyl)nicotinonitrile]: 2.91 µM.
For `COc1ccc(-c2cncc(C#N)c2Nc2ccc(Cl)cc2)cc1OC` [Compound 108, 4-[(4-chlorophenyl)amino]-5-(3,4-dimethoxyphenyl)nicotinonitrile], the IC50 worked out at 2.77 µM.
Consider `COc1ccc(-c2cncc(C#N)c2Nc2ccc(C)cc2C)cc1OC` [Compound 109, 5-(3,4-dimethoxyphenyl)-4-[(2,4-dimethylphenyl)amino]nicotinonitrile], for which the IC50 was 0.81 µM.
On to `COc1ccc(Nc2c(C#N)cncc2-c2ccc(OC)c(OC)c2)cc1` [Compound 110, 5-(3,4-dimethoxyphenyl)-4-[(4-methoxyphenyl)amino]nicotinonitrile], for which the IC50 was determined as 1.16 µM.
Regarding `COc1ccc(Nc2c(C#N)cncc2-c2ccc(OC)c(OC)c2)cc1Cl` [Compound 111, 4-[(3-chloro-4-methoxyphenyl)amino]-5-(3,4-dimethoxyphenyl)nicotinonitrile], the IC50 is 1.41 µM.
As to `COc1ccc(-c2cncc(C#N)c2Nc2cc(Cl)ccc2Cl)cc1OC` [Compound 113, 4-[(2,5-dichlorophenyl)amino]-5-(3,4-dimethoxyphenyl)nicotinonitrile], the IC50 was 3.6 µM.
On to `COc1ccc(Nc2c(C#N)cncc2-c2ccc(OC)c(OC)c2)c(C)c1` [Compound 114, 5-(3,4-dimethoxyphenyl)-4-[(4-methoxy-2-methylphenyl)amino]nicotinonitrile], for which the IC50 came to 0.4 µM.
As for `COc1ccc(Cl)cc1Nc1c(C#N)cncc1-c1ccc(OC)c(OC)c1` [Compound 116, 4-[(5-chloro-2-methoxyphenyl)amino]-5-(3,4-dimethoxyphenyl)nicotinonitrile], the IC50 worked out at 3.2 µM.
Turning to `COc1ccc(-c2cncc(C#N)c2Nc2cccc(OCc3ccccc3)c2)cc1OC` [Compound 117, 4-{[3-(benzyloxy)phenyl]amino}-5-(3,4-dimethoxyphenyl)nicotinonitrile], the IC50 is 13.8 µM.
Turning to `COc1ccc(-c2cncc(C#N)c2Nc2ccc(C)cc2)cc1OC` [Compound 118, 5-(3,4-dimethoxyphenyl)-4-[(4-methylphenyl)amino]nicotinonitrile], the IC50 turned out to be 4.44 µM.
For `COc1ccc(-c2cncc(C#N)c2Nc2cc(OC)c(OC)c(OC)c2)cc1OC` [Compound 119, 5-(3,4-dimethoxyphenyl)-4-[(3,4,5-trimethoxyphenyl)amino]nicotinonitrile], the IC50 stood at 11.7 µM.
For `COc1ccc(-c2cncc(C#N)c2Nc2ccc(OCc3cccc(C#N)c3)c(Cl)c2)cc1OC` [Compound 122, 4-({3-chloro-4-[(3-cyanobenzyl)oxy]phenyl}amino)-5-(3,4-dimethoxyphenyl)nicotinonitrile], the IC50 was 1040 µM.
The same measure, in the same setting: next, `COc1ccc(-c2cncc(C#N)c2Nc2ccc(OCc3cccs3)c(Cl)c2)cc1OC` [Compound 123, 4-{[3-chloro-4-(thien-2-ylmethoxy)phenyl]amino}-5-(3,4-dimethoxyphenyl)nicotinonitrile]: 38 µM; `COc1ccc(-c2cncc(C#N)c2Nc2ccc(Cl)cc2Cl)cc1OC` [Compound 126, 4-[(2,4-dichlorophenyl)amino]-5-(3,4-dimethoxyphenyl)nicotinonitrile]: 0.34 µM; `COc1ccc(-c2cncc(C#N)c2Nc2cccc(Br)c2)cc1OC` [Compound 135, 4-[(3-bromophenyl)amino]-5-(3,4-dimethoxyphenyl)nicotinonitrile]: 5 µM.
The same measure, in the same setting: then `N#Cc1cncc(-c2cccc([N+](=O)[O-])c2)c1Nc1ccc(OCc2ccccc2)c(Cl)c1` [Compound 142, 4-{[4-(benzyloxy)-3-chlorophenyl]amino}-5-(3-nitrophenyl)nicotinonitrile], with 214 µM.
For `N#Cc1cncc(-c2cccc([N+](=O)[O-])c2)c1Nc1ccc(F)c(Cl)c1` [Compound 144, 4-[(3-chloro-4-fluorophenyl)amino]-5-(3-nitrophenyl)nicotinonitrile], the 50% inhibitory concentration (IC50) came out at 158 µM.
With `N#Cc1cncc(-c2ccccc2[N+](=O)[O-])c1Nc1ccc(F)c(Cl)c1` [Compound 146, 4-[(3-chloro-4-fluorophenyl)amino]-5-(2-nitrophenyl)nicotinonitrile], the IC50 worked out at 3.85 µM.

In another experiment the target is T2, human PKCθ full length enzyme (Homo sapiens, UniProt Q04759).
T2 construct: human PKCθ full length enzyme (Panvera Cat# P2996); purchased Panvera P2996
T2 sequence (Q04759 whole entry): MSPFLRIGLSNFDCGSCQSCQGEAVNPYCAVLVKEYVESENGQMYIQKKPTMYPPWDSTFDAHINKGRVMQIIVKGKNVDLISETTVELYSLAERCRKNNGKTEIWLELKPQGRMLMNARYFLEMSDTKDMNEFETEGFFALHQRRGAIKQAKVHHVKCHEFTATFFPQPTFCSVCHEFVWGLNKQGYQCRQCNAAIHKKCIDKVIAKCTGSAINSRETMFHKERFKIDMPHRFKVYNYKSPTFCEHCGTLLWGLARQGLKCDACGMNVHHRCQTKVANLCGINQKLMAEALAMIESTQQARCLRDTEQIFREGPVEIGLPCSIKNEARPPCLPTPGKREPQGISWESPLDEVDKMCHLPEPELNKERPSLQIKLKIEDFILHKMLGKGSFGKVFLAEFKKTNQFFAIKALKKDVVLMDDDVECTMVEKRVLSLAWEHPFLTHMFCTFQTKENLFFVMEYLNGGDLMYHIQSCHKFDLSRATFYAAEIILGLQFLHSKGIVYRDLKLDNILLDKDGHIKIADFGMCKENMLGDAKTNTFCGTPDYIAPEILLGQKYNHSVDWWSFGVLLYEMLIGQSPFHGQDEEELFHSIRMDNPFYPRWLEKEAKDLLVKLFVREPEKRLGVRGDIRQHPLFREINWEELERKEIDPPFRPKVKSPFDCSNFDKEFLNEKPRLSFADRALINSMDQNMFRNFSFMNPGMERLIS
Briefly: PKCθ IMAP assay. The experiment is classed as biochemical. Particulars: full length enzyme 1 nM; ATP 6 μM; peptide 100 nM; FP readout; average value. On the procedure: The materials used include the following: human PKCθ full length enzyme (Panvera Cat# P2996); substrate peptide: 5FAM-RFARKGSLRQKNV-OH (Molecular Devices, RP7032); ATP (Sigma Cat # A2383); DTT (Pierce, 20291); 5× kinase reaction buffer (Molecular Devices, R7209); 5× binding buffer A (Molecular Devices, R7282), 5× binding buffer B (Molecular Devices, R7209); IMAP Beads (Molecular Devices, R7284); and 384-well plates (Corning Costar, 3710).
The reaction buffer was prepared by diluting the 5× stock reaction buffer and adding DTT to obtain a concentration of 3.0 mM. The binding buffer was prepared by diluting the 5× binding buffer A. A master mix solution was prepared using a 90% dilution of the reaction buffer containing 2× ATP (12 uM) and 2× peptide (200 nm). Compounds were diluted in DMSO to 20× of the maximum concentration for the IC50 measurement. 27 μl of the master mix solution for each IC50 curve was added to the first column in a 384-well plate and 3 μl of 20× compound in DMSO was added to each well. The final concentration of compound was 2× and 10% DMSO. DMSO was added to the rest of the master mix to increase the concentration to 10%. 10 μl of the master mix containing 10% DMSO was added to the rest of the wells on the plate except the 2nd column. 20 μl was transferred from the first column to the 2nd column.
The compounds were serially diluted in 2:1 ratio starting from the 2nd column. A 2× (2 nM) PKCθ solution was made in the reaction buffer. 10 μl of the PKCθ solution was added to every well to achieve these final concentrations: PKCθ—1 nM; ATP—6 μM; peptide—100 nM; DMSO—5%. Samples were incubated for 25 minutes at room temperature. The binding reagent was prepared by diluting the beads in 1× binding buffer to 800:1. 50 μl of the binding reagent was added to every well and incubated for 20 minutes. FP was measured using Envision2100 (PerkinElmer Life Sciences). Wells with no ATPs and wells with no enzymes were used as controls.
In the case of `COc1ccc(-c2cncc(C#N)c2Nc2cc(OC)c(OC)c(OC)c2)cc1OC` [Compound 119, 5-(3,4-dimethoxyphenyl)-4-[(3,4,5-trimethoxyphenyl)amino]nicotinonitrile], the IC50 came to 1.95 µM.
Turning to `COc1ccc(-c2cncc(C#N)c2Nc2cc(OCCO)c(Cl)cc2Cl)cc1OC` [Compound 141, 4-{[2,4-dichloro-5-(2-hydroxyethoxy)phenyl]amino}-5-(3,4-dimethoxyphenyl)nicotinonitrile], the IC50 was 0.1 µM.

The next experiment deals with T3, purified recombinant full length PKC theta (Panvera, P2996) (Homo sapiens, UniProt Q04759).
T3 construct: purified recombinant full length PKC theta (Panvera, P2996); purchased Panvera P2996
T3 sequence (Q04759 whole entry): as above
The experiment can be described thus: Radioactive kinase assay for inhibition of full length (FL) PKCθ. The following applies: full length enzyme; radioactive (ATP γ P33) assay; average value. It counts as biochemical. The method, then:
as §1
A Radioactive Kinase Assay for Inhibition of Full Length (FL) PKCθ Inhibitors
This assay differs from what was described above in that the enzyme used was purified recombinant full length PKC theta (Panvera, P2996).
For `CCOc1cc(Nc2c(C#N)cncc2-c2ccc(OC)c(OC)c2)c(Cl)cc1Cl` [Compound 138, 4-[(2,4-dichloro-5-ethoxyphenyl)amino]-5-(3,4-dimethoxyphenyl)nicotinonitrile], the IC50 was determined as 0.32 µM.
For `CCCOc1cc(Nc2c(C#N)cncc2-c2ccc(OC)c(OC)c2)c(Cl)cc1Cl` [Compound 139, 4-[(2,4-dichloro-5-propoxyphenyl)amino]-5-(3,4-dimethoxyphenyl)nicotinonitrile], the IC50 is 8 µM.
As to `CCCCOc1cc(Nc2c(C#N)cncc2-c2ccc(OC)c(OC)c2)c(Cl)cc1Cl` [Compound 140, 4-[(5-butoxy-2,4-dichlorophenyl)amino]-5-(3,4-dimethoxyphenyl)nicotinonitrile], the IC50 was 9.75 µM.
As for `COc1ccc(-c2cncc(C#N)c2Nc2cc(OCCO)c(Cl)cc2Cl)cc1OC` [Compound 141, 4-{[2,4-dichloro-5-(2-hydroxyethoxy)phenyl]amino}-5-(3,4-dimethoxyphenyl)nicotinonitrile], the IC50 is 0.16 µM.
For `COCCOc1cc(-c2cncc(C#N)c2Nc2cc(OC)c(Cl)cc2Cl)ccc1OC` [Compound 148, 4-[(2,4-dichloro-5-methoxyphenyl)amino]-5-[4-methoxy-3-(2-methoxyethoxy)phenyl]nicotinonitrile], the IC50 came to 0.52 µM.
`COCCOc1ccc(-c2cncc(C#N)c2Nc2cc(OC)c(Cl)cc2Cl)cc1OC` [Compound 149, 4-[(2,4-dichloro-5-methoxyphenyl)amino]-5-[3-methoxy-4-(2-methoxyethoxy)phenyl]nicotinonitrile]: the IC50 was determined as 7.09 µM.
Turning to `COc1cc(Nc2c(C#N)cncc2-c2cccc(OCCCl)c2)c(Cl)cc1Cl` [Compound 150, 5-[3-(2-chloroethoxy)phenyl]-4-[(2,4-dichloro-5-methoxyphenyl)amino]nicotinonitrile], the concentration for half-maximal inhibition (IC50) was 0.5 µM.
With `COc1cc(Nc2c(C#N)cncc2-c2cccc(OCCN3CCCC3)c2)c(Cl)cc1Cl` [Compound 151, 4-[(2,4-dichloro-5-methoxyphenyl)amino]-5-[3-(2-pyrrolidin-1-ylethoxy)phenyl]nicotinonitrile], the IC50 was determined as 7.1 µM.
